Columns and labels:
[1] = in-vitro skin penetration, vertical diffusion cell
Description: Skin penetration studies were carried out using porcine full-thickness skin (Procured from Department of Animal and Range Sciences, SDSU) and excised human skin (NDRI, Philadelphia, PA). The skin was sandwiched between the two compartments of a vertical diffusion cell and equilibrated for 3 hrs. The receptor compartment was filled with phosphate buffer (pH 7.4) and was maintained at 37° C. with stirring. […] Samples (200μ) were removed from the receptor compartment at predetermined intervals and replaced with an equal volume of fresh buffer. To study the effect of the formulation forming a skin depot, in a separate experiment the skin was treated for 6 hrs and the treatment was removed. The donor compartment was replaced with plain buffer (pH 7.4) and the study was continued for 48 hrs. At the end of the study the skin was taken out and stratum corneum (SC) was removed using tape stripping and the tape strips were soaked in 50% ethanol overnight to extract the drug. The remaining skin (epidermis and dermis) was homogenized using 1M sodium hydroxide solution. Scintillation cocktail was added to all the samples and the radioactive counts were measured in a scintillation counter (Beckman).

[2] = test system: reconstructed human skin (EPI-200; Epiderm); experiment: in vitro skin irritation, MTT viability assay; format: cell-based
Description: In vitro skin irritation studies were carried out using reconstructed human skin (EPI-200; Epiderm; Mattek Corporation, Ashland, MA). […] Briefly, the MTT assay was performed by transferring the tissues to 24-well plates containing MTT medium (1 mg/ml). After 3 hours, formazan salt formed by cellular mitochondria was extracted with 2 ml/tissue of isopropanol and the optical density will be measured using a plate reader at 570 nm. Relative cell viability will be calculated as % of the mean of the negative control. The cytotoxicity was estimated by the time to kill 50% of the cells (ET-50).

| Compound | amount of tetracycline in the human skin [1] | ET 50 Value [2] [h] |
| --- | --- | --- |
| CN(C)[C@@H]1C(O)=C(C(N)=O)C(=O)[C@@]2(O)C(O)=C3C(=O)c4c(O)cccc4[C@@](C)(O)[C@H]3C[C@@H]12 [tetracycline] | 20-60 μg/sq·cm |  |
| Triton X-100 [Positive control] |  | 5.28 |
